# Experimental data as given in ChEMBL document CHEMBL1147881, “Synthesis and herbicidal activity of novel pyrazolo[3,4-d]pyrimidin-4-one derivatives containing aryloxyphenoxypropionate moieties” (2007).
# Key:
# Assay type in all cases: functional
# Echinochloa crus-galli [1] = assay: Herbicidal activity against barnyard grass assessed as inhibition of stalk growth at 100 mg/L relative to control
# Brassica napus [2] = assay: Herbicidal activity against rape assessed as inhibition of root growth at 100 mg/L relative to control
# Brassica napus [3] = assay: Herbicidal activity against rape assessed as inhibition of stalk growth at 100 mg/L relative to control
# Echinochloa crus-galli [4] = assay: Herbicidal activity against barnyard grass assessed as inhibition of stalk growth at 10 mg/L relative to control
# Echinochloa crus-galli [5] = assay: Herbicidal activity against barnyard grass assessed as inhibition of root growth at 100 mg/L relative to control
# Echinochloa crus-galli [6] = assay: Herbicidal activity against barnyard grass assessed as inhibition of root growth at 10 mg/L relative to control
# Brassica napus [7] = assay: Herbicidal activity against rape assessed as inhibition of root growth at 10 mg/L relative to control
# Brassica napus [8] = assay: Herbicidal activity against rape assessed as inhibition of stalk growth at 10 mg/L relative to control
SMILES,inhibition at 100 µg/mL (Echinochloa crus-galli [1]),inhibition at 100 µg/mL (Brassica napus [2]),inhibition at 100 µg/mL (Brassica napus [3]),inhibition at 10 µg/mL (Echinochloa crus-galli [4]),inhibition at 100 µg/mL (Echinochloa crus-galli [5]),inhibition at 10 µg/mL (Echinochloa crus-galli [6]),inhibition at 10 µg/mL (Brassica napus [7]),inhibition at 10 µg/mL (Brassica napus [8])
COC(=O)C(C)Oc1ccc(Oc2nc3c(c(S(C)(=O)=O)nn3-c3ccccc3)c(=O)n2C(=O)Nc2ccccc2F)cc1 (stereo not drawn),-21%,28%,0%,10.5%,53.3%,33.3%,16.3%,0%
CCCOC(=O)C(C)Oc1ccc(Oc2nc3c(c(SC)nn3-c3ccccc3)c(=O)n2C(=O)Nc2ccccc2Cl)cc1 (stereo not drawn),25.8%,36.7%,8.5%,25.8%,64.3%,53.4%,5.5%,10.6%
COC(=O)C(C)Oc1ccc(Oc2nc3c(c(S(C)(=O)=O)nn3-c3ccccc3)c(=O)n2C(=O)Nc2ccccc2)cc1 (stereo not drawn),31.6%,80.4%,48.9%,5.3%,93.3%,66.7%,25%,13.3%
CCOC(=O)C(C)Oc1ccc(Oc2nc3c(c(SC)nn3-c3ccccc3)c(=O)n2C(=O)Nc2ccccc2)cc1 (stereo not drawn),32.3%,86.1%,46.2%,12.9%,88.5%,57.7%,57.4%,12.9%
CCCOC(=O)C(C)Oc1ccc(Oc2nc3c(c(S(C)(=O)=O)nn3-c3ccccc3)c(=O)n2C(=O)Nc2ccccc2Cl)cc1 (stereo not drawn),23.3%,67.4%,42.2%,16.7%,80%,50%,17.4%,-17.8%
CCOC(=O)C(C)Oc1ccc(Oc2nc3c(c(S(C)(=O)=O)nn3-c3ccccc3)c(=O)n2C(=O)Nc2cccc(C)c2)cc1 (stereo not drawn),51.7%,98%,74.4%,3.4%,95.6%,54.3%,51%,17.9%
CCOC(=O)COc1ccc(Oc2nc3c(c(SCc4ccccc4)nn3-c3ccccc3)c(=O)n2C(=O)Nc2cccc(C)c2)cc1,-10.5%,64.1%,24%,5.3%,75.5%,66.7%,20.6%,20%
CCOC(=O)C(C)Oc1ccc(Oc2nc3c(c(SC)nn3-c3ccccc3)c(=O)n2C(=O)Nc2cccc(C)c2)cc1 (stereo not drawn),0%,97%,63.5%,-12.9%,88.5%,59.6%,46.5%,9.6%
COC(=O)C(C)Oc1ccc(Oc2nc3c(c(SC)nn3-c3ccccc3)c(=O)n2C(=O)Nc2ccccc2)cc1 (stereo not drawn),68.9%,96.1%,76.9%,44.8%,93.5%,63%,40.2%,20.5%
CCOC(=O)C(C)Oc1ccc(Oc2nc3c(c(SCc4ccccc4)nn3-c3ccccc3)c(=O)n2C(=O)Nc2cccc(C)c2)cc1 (stereo not drawn),-6.4%,32.2%,10.6%,-6.4%,61.9%,33.3%,24.4%,-2.1%
CCOC(=O)C(C)Oc1ccc(Oc2nc3c(c(S(=O)(=O)Cc4ccccc4)nn3-c3ccccc3)c(=O)n2C(=O)Nc2cccc(C)c2)cc1 (stereo not drawn),16.7%,34.8%,6.7%,13.3%,72.5%,50%,9.8%,6.7%
